Measured values from PMC5547389, “Structure-activity relationships and molecular docking studies of chromene and chromene based azo chromophores: A novel series of potent antimicrobial and anticancer agents” (EXCLI Journal, 2017).
Converted amounts (≈) assume the structure as drawn. Where two headings read alike, the source gives them in different places.

Key:
[1] = test system: Geotricum candidum (RCMB 05097); assay: MIC by serial dilution method; type: cell-based; details: read-out: Minimum inhibitory concentration, MIC, G.C
Protocol: (§1) All the newly synthesized compounds described in this report were screened for both antibacterial and antifungal activity via the reported agar diffusion well method (Vanden Berghe and Vlietinck, 1991[62]). The inhibition zones and minimum inhibitory concentrations (MIC) were determined by the serial dilution method (Cappuccino and Sherman, 1999[12]). The antimicrobial activity of the synthesized compounds was tested against a broad panel of microorganisms including two Gram-positive bacteria: Streptococcus pneumoniae (RCMB 010010) and Bacillus subtilis (RCMB 010067), two Gram-negative bacteria: Pseudomonas aeruginosa (RCMB 010043) and Escherichia coli (RCMB 010052), and four fungi: Aspergillus fumigatus (RCMB 02568), Syncephalastrum racemosum (RCMB 05922), Geotricum candidum (RCMB 05097), and Candida albicans (RCMB 05036). Ampicillin, ciprofloxacin, gentamicin and amphotericin B were used as positive control drugs (Atta-ur-Rahman and Thomsen, 2001[7]; Smania et al., 1999[57]). […] While in the case of Gm-ve bacteria, they had weak activity. In addition, certain strains of fungi were sensitive to tested compounds with an IZ range from 12-25 except Candida albicans.

[2] = test system: Aspergillus fumigatus (RCMB 02568); assay: MIC by serial dilution method; type: cell-based
Protocol: as §1

[3] = test system: Syncephalastrum racemosum (RCMB 05922); assay: MIC by serial dilution method; type: cell-based
Protocol: as §1

[4] = test system: Geotricum candidum (RCMB 05097); assay: Well diffusion assay (inhibition zone); type: cell-based; details: read-out: Inhibition Zone (IZ) diameter, G.C
Protocol: (§2) The microorganism inoculums were uniformly spread using sterile cotton swabs on a sterile Petri dish malt extract agar (for fungi) and nutrient agar (for bacteria). One hundred cubic millimeters of each sample was added to each well (10 mm-diameter holes were cut in the agar gel, 20 mm apart from one another). The systems were incubated for 24-48 h at 37 °C (for bacteria) and at 28 °C (for fungi). After incubation, the microorganism growth was observed. Inhibition zones of the bacterial and fungal growth were measured in millimeters. Tests were performed in triplicate (Cappuccino and Sherman, 1999[12]; Vanden Berghe and Vlientinck, 1991[62]).
as §1

[5] = test system: Candida albicans (RCMB 05036); assay: Well diffusion assay (inhibition zone); type: cell-based; details: RCMB05036, 5 mg/mL in DMSO, fungi, read-out: Inhibition Zone (IZ) diameter, C.A
Protocol: as §2, §1

[6] = test system: Aspergillus fumigatus (RCMB 02568); assay: Well diffusion assay (inhibition zone); type: cell-based
Protocol: as §2, §1

[7] = test system: Syncephalastrum racemosum (RCMB 05922); assay: Well diffusion assay (inhibition zone); type: cell-based
Protocol: as §2, §1

[8] = test system: Bacillus subtilis (RCMB 010067); assay: MIC by serial dilution method; type: cell-based; details: RCMB010067, read-out: Minimum inhibitory concentration, MIC, B.S
Protocol: as §1

[9] = test system: Streptococcus pneumoniae (RCMB 010010); assay: MIC by serial dilution method; type: cell-based; details: RCMB010010, read-out: Minimum inhibitory concentration, MIC, S.P
Protocol: as §1

[10] = test system: Escherichia coli (RCMB 010052); assay: MIC by serial dilution method; type: cell-based; details: RCMB010052, read-out: Minimum inhibitory concentration, MIC, E.C
Protocol: as §1

[11] = test system: Bacillus subtilis (RCMB 010067); assay: Well diffusion assay (inhibition zone); type: cell-based
Protocol: as §2, §1

[12] = test system: Streptococcus pneumoniae (RCMB 010010); assay: Well diffusion assay (inhibition zone); type: cell-based
Protocol: as §2, §1

[13] = test system: Escherichia coli (RCMB 010052); assay: Well diffusion assay (inhibition zone); type: cell-based
Protocol: as §2, §1

[14] = test system: human breast adenocarcinoma (MCF-7); assay: Cytotoxic screening; type: cell-based
Procedure, shortened: (§3)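 Read-out is crystal violet staining (the text also names MTT), lysis in 33 % acetic acid, A590, with untreated cells as 100 %. IC50 was estimated graphically from survival curves.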

[15] = test system: Human colon carcinoma (HCT-116); assay: Cytotoxic screening; type: cell-based
Procedure, shortened: as §3

[16] = test system: human hepatocellular carcinoma (HEPG-2); assay: Cytotoxic screening; type: cell-based; details: HepG2, read-out: IC50 HepG-2
Procedure, shortened: as §3

HCT-116, MCF-7, HEPG-2 = assay: Cytotoxic screening, statements over the three cell lines; type: cell-based; details: Homo sapiens, read-out: IC50, range over the three cell lines
Protocol: Human colon carcinoma (HCT-116), human hepatocellular carcinoma (HEPG-2), adenocarcinomic human alveolar basal epithelial cell (A-549), and human breast adenocarcinoma (MCF-7) cell lines were obtained from the American Type Culture Collection (ATCC, Rockville, MD). The cells were grown on RPMI-1640 medium supplemented with 10 % inactivated fetal calf serum and 50 µg/ml gentamycin. The cells were maintained at 37 °C in a humidified atmosphere with 5 % CO2 and were subcultured two to three times a week. Potential cytotoxicity of the compounds was evaluated on tumor cells using the method of Gangadevi and Muthumary (2007[21]) (Klancnik et al., 2010[36]). The cells were grown as monolayers in growth RPMI-1640. The monolayers of 104 cells adhered at the bottom of the wells in a 96-well microtiter plate incubated for 24 h at 37 °C in a humidified incubator with 5 % CO2. The monolayers were then washed with sterile phosphate buffered saline (0.01 M pH 7.2) and simultaneously the cells were treated with 100 µL from different dilutions of tested sample in fresh maintenance medium and incubated at 37 °C. A control of untreated cells was made in the absence of tested sample. Positive controls containing doxorubicin were also tested as a reference drug for comparison. Six wells were used for each concentration of the test sample. Every 24 hours an observation under the inverted microscope was made. The number of the surviving cells was determined by staining the cells with crystal violet (Mosmann, 1983[42]; Gangadevi and Muthumary, 2007[21]) followed by cell lysing using 33 % glacial acetic acid and reading the absorbance at 590 nm using microplate reader (SunRise, TECAN, Inc, USA) after well mixing. The absorbance values from untreated cells were considered as 100 % proliferation. The number of viable cells was determined using microplate reader as previously mentioned before and the percentage of […] was calculated as [1-(ODt/ODc)] x 100 % where ODt is the mean optical density of wells treated with the tested sample and ODc is the mean optical density of untreated cells. The relation between surviving cells and drug concentration was plotted to get the survival curve of each tumor cell line after treatment with the specified compound. The 50 % inhibitory concentration (IC50), the concentration required to cause toxic effects in 50 % of intact cells, was estimated from graphic plots.
The in vitro cytotoxic activity was performed by MTT assay (Mosmann, 1983[42]; Alley et al., 1988[6]) against three human carcinoma cell lines: Human colon carcinoma (HCT-116), human breast adenocarcinoma (MCF-7), and human hepatocellular carcinoma (HEPG-2).

[17] = test system: Gm+ve bacteria, Gm-ve bacteria, fungi; assay: Well diffusion assay, statements over groups of microorganisms; type: cell-based
Protocol: as §2
All the newly synthesized compounds described in this report were screened for both antibacterial and antifungal activity via the reported agar diffusion well method (Vanden Berghe and Vlietinck, 1991[62]). The inhibition zones and minimum inhibitory concentrations (MIC) were determined by the serial dilution method (Cappuccino and Sherman, 1999[12]). […]

[18] = RCMB02568, 5 mg/mL in DMSO, fungi, read-out: Inhibition Zone (IZ) diameter, A.F
[19] = RCMB05922, 5 mg/mL in DMSO, fungi, read-out: Inhibition Zone (IZ) diameter, S.R
[20] = RCMB010067, 5 mg/mL in DMSO, Gm+ve, read-out: Inhibition Zone (IZ) diameter, B.S
[21] = RCMB010010, 5 mg/mL in DMSO, Gm+ve, read-out: Inhibition Zone (IZ) diameter, S.P
[22] = RCMB010052, 5 mg/mL in DMSO, Gm-ve, read-out: Inhibition Zone (IZ) diameter, E.C
[23] = Homo sapiens, MCF7; read-out: IC50 MCF-7
[24] = Homo sapiens, HCT-116; read-out: IC50 HCT-116

Compound	zone of inhibition at 5000 µg/mL ([4]; 5 mg/mL in DMSO, fungi) [mm]	zone of inhibition at 5000 µg/mL [5] [mm]	zone of inhibition at 5000 µg/mL [6, 18] [mm]	zone of inhibition at 5000 µg/mL [7, 19] [mm]	IC50 [16] [µg/mL]	zone of inhibition at 5000 µg/mL [11, 20] [mm]	zone of inhibition at 5000 µg/mL [12, 21] [mm]	zone of inhibition at 5000 µg/mL [13, 22] [mm]	IC50 [14, 23] [µg/mL]	IC50 [15, 24] [µg/mL]	melting point [°C]	IZ range against Gm+ve, Gm-ve bacteria, and fungi [17]	other results
C[C@@H]1[C@H](O)[C@@H](C)/C=C/C=C/C=C/C=C/C=C/C=C/C=C/[C@H](O[C@@H]2O[C@H](C)[C@@H](O)[C@H](N)[C@@H]2O)C[C@@H]2O[C@](O)(C[C@@H](O)C[C@@H](O)[C@H](O)CC[C@@H](O)C[C@@H](O)CC(=O)O[C@H]1C)C[C@H](O)[C@H]2C(=O)O [Amphotericin B, reference compound]	28.7	25.4	23.7	19.7	–	–	–	–	–	–	–	–	MIC ([1]; fungi): 0.015 µg/mL (≈ 0.0162 µM); MIC ([2]; RCMB02568, fungi, read-out: Minimum inhibitory concentration, MIC, A.F): 0.24 µg/mL (≈ 0.26 µM); MIC ([3]; RCMB05922, fungi, read-out: Minimum inhibitory concentration, MIC, S.R): 3.9 µg/mL (≈ 4.22 µM)
Nc1cc2ccccc2cc1O [compound 1, 3-amino-2-naphthol]	–	–	–	–	60.5 (≈ 380 µM)	–	–	–	–	–	–	–	MIC [1]: 62.5 µg/mL (≈ 393 µM); MIC [8]: 31.2 µg/mL (≈ 196 µM); MIC [9]: 15.6 µg/mL (≈ 98.1 µM); MIC [10]: 7.8 µg/mL (≈ 49 µM); MIC ([2]; RCMB02568, read-out: Minimum inhibitory concentration, MIC, A.F): 15.6 µg/mL (≈ 98.2 µM); MIC ([3]; RCMB05922, read-out: Minimum inhibitory concentration, MIC, S.R): 7.81 µg/mL (≈ 49.1 µM); zone of inhibition at 5000 µg/mL [4]: 19.2 mm; zone of inhibition at 5000 µg/mL ([11]; RCMB010067, read-out: Inhibition Zone (IZ) diameter, B.S): 17.8 mm; zone of inhibition at 5000 µg/mL ([12]; RCMB010010, read-out: Inhibition Zone (IZ) diameter, S.P): 15.9 mm; zone of inhibition at 5000 µg/mL ([13]; RCMB010052, read-out: Inhibition Zone (IZ) diameter, E.C): 15.5 mm; zone of inhibition at 5000 µg/mL ([6]; RCMB02568, read-out: Inhibition Zone (IZ) diameter, A.F): 16.6 mm; zone of inhibition at 5000 µg/mL ([7]; RCMB05922, read-out: Inhibition Zone (IZ) diameter, S.R): 14.3 mm; IC50 ([14]; Homo sapiens, MCF7, read-out: IC50 MCF-7): 230 µg/mL (≈ 1440 µM); IC50 ([15]; Homo sapiens, HCT-116, read-out: IC50 HCT-116): 218 µg/mL (≈ 1370 µM); IC50 (HCT-116, MCF-7, HEPG-2): 60 to 230 µg/mL (≈ 377 to 1440 µM)
Nc1cccc2c(O)cccc12 [compound 5, 5-amino-1-naphthol]	19.5	–	18.3	14.5	15.2 (≈ 95.5 µM)	18.9	16.3	17.2	8.88 (≈ 55.8 µM)	11.5 (≈ 72.2 µM)	–	–	IC50 (HCT-116, MCF-7, HEPG-2; HCT-116, MCF-7, HEPG-2 together): 9 to 15 µg/mL (≈ 56.5 to 94.2 µM)
COc1ccc(C2C(C#N)=C(N)Oc3c2ccc2c(N)cccc32)cc1 (centres unmarked) [7b, 2,7-Diamino-4-(4-methoxy-phenyl)-4H-benzo[h]chromene-3-carbonitrile]	22.6	–	21.6	20.3	28.2 (≈ 82.1 µM)	23.2	22.4	22.1	25.9 (≈ 75.4 µM)	44.1 (≈ 128 µM)	185	18-23 mm	–
N#CC1=C(N)Oc2c(ccc3c(N)cccc23)C1c1c(F)cc(F)cc1F (centres unmarked) [7d, 2,7-Diamino-4-(2,4,6-trifluoro-phenyl)-4H-benzo[h]chromene-3-carbonitrile]	22.4	–	20.3	18.1	52.3 (≈ 142 µM)	22.3	21.6	20.8	54 (≈ 147 µM)	61.3 (≈ 167 µM)	235	18-23 mm	–
CC(=O)c1ccc(N=Nc2cc3c(cc2O)OC(N)=C(C#N)C3c2ccc(F)cc2)cc1 (centres unmarked) [13d, 6-(4-Acetyl-phenylazo)-2-amino-4-(4-fluoro-phenyl)-7-hydroxy-4H-chromene-3-carbonitrile]	–	8	13.4	11.4	85 (≈ 198 µM)	13.2	12.9	10.8	80 (≈ 187 µM)	75 (≈ 175 µM)	265	–	–
